Experimental data taken from patent US20120302584A1, “NOVEL SALTS FORMS OF PYRIMIDIN-5-YL ACETIC ACID DERIVATIVE” (BOEHRINGER INGELHEIM INTERNATIONAL GMBH, priority 2009, published 2012).
Values after ≈ are worked out from the molar mass of the structure shown. Where a name gives a salt, the structure may show the parent alone.

Experiments:
[1] = Kinetic solubility in sodium dodecyl sulfate solution at pH 6.8 and 37° C.; type: physicochemical; settings: for maximum solubility (kinetic solubility): pH 6.8, 0.2% sodium dodecyl sulfate (SDS) solution, after about 5 minutes
Protocol: FIG. 7 also depicts comparative kinetic solubility for the acid-free form of the compound of formula (I)(♦), a choline salt of the compound of formula (I)( ? ), and an ethylenediamine salt of the compound of formula (I) (▴).
After 60 minutes, the solubilities ranged from about 150 μg/mL (for the ethylenediamine salt of the compound of formula (I)) to about 245 μg/mL (for the choline salt of the compound of formula (I)).

[2] = Dynamic vapor sorption (water sorption/desorption); type: physicochemical; settings: 25° C.; for hygroscopicity (in words): conditions used in this analysis
Protocol: Vapor sorption/desorption was carried out using Surface Measurement Systems DVS-HT. Samples were placed into a foil insert placed on a sample pan. […] The equilibrium point of each step was reached when 0.002% of weight change was reached.

[3] = pH 6.8, 0.2% SDS solution, after 60 minutes

SMILES | maximum solubility (kinetic solubility) [1] | hygroscopicity (in words) [2] | moisture gain through 85% relative humidity [2] | solubility after 60 minutes (kinetic solubility) [1, 3] | also measured
CN(C)c1nc(Cc2ccc(NC(=O)c3ccc(C(F)(F)F)cc3)cc2)nc(N(C)C)c1CC(=O)O [N-methyl-D-glucamine salt of the invention] [[4,6-bis(dimethylamino)-2-(4-{[4-(trifluoromethyl)benzoyl]amino}benzyl)pyrimidin-5-yl] acetic acid] | about 910 μg/mL | mild hygroscopicity | about 3.7% |  | 
CN(C)c1nc(Cc2ccc(NC(=O)c3ccc(C(F)(F)F)cc3)cc2)nc(N(C)C)c1CC(=O)O [[4,6-bis(dimethylamino)-2-(4-{[4-(trifluoromethyl)benzoyl]amino}benzyl)pyrimidin-5-yl] acetic acid, reference compound] |  |  |  |  | solubility kinetic at 60 min ([1]; 0.2% sodium dodecyl sulfate (SDS) solution, 37 °C, pH 6.8, aqueous with cosolvent or surfactant or cyclodextrin, pH 6.8, 0.2% SDS solution, after 60 minutes): ~245 µg/mL (≈ 489 µM)
CN(C)c1nc(Cc2ccc(NC(=O)c3ccc(C(F)(F)F)cc3)cc2)nc(N(C)C)c1CC(=O)O [choline salt of the compound of formula (I)] [[4,6-bis(dimethylamino)-2-(4-{[4-(trifluoromethyl)benzoyl]amino}benzyl)pyrimidin-5-yl] acetic acid, reference compound] | about 960 μg/mL |  |  |  | 
CN(C)c1nc(Cc2ccc(NC(=O)c3ccc(C(F)(F)F)cc3)cc2)nc(N(C)C)c1CC(=O)O [ethylenediamine salt of the compound of formula (I)] [[4,6-bis(dimethylamino)-2-(4-{[4-(trifluoromethyl)benzoyl]amino}benzyl)pyrimidin-5-yl] acetic acid, reference compound] |  |  |  | about 150 μg/mL | maximum solubility (kinetic solubility) ([1]; listed as ethylenediame salt of the compound of formula (I)): about 670 μg/mL
CN(C)c1nc(Cc2ccc(NC(=O)c3ccc(C(F)(F)F)cc3)cc2)nc(N(C)C)c1CC(=O)O [free acid form of the compound of formula (I)] [[4,6-bis(dimethylamino)-2-(4-{[4-(trifluoromethyl)benzoyl]amino}benzyl)pyrimidin-5-yl] acetic acid] | about 50 μg/mL |  |  | essentially unchanged | 
CN(C)c1nc(Cc2ccc(NC(=O)c3ccc(C(F)(F)F)cc3)cc2)nc(N(C)C)c1CC(=O)O [sodium salt of the invention, [4,6-bis(dimethylamino)-2-(4-{[4-(trifluoromethyl)benzoyl]amino}benzyl)pyrimidin-5-yl] acetic acid] | about 1010 μg/mL | hygroscopic | about 17% |  | moisture gain through 55% relative humidity ([2]; 55% relative humidity): less than 2%
